Assay results: ChEMBL document CHEMBL1201862, “PubChem BioAssay data set” (2004)
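Five compound concentrations were applied to cells in 96-well plates for 48 hours; endpoints were derived by simple linear interpolation of the resulting dose-response curve. The concentration for 50% growth inhibition is given as GI50.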 Activity calls are given as the source filed them. No stated cut-off is given here; in the data, active = GI50 up to about 1.1 µM and inactive = higher.

Tests used:
Assay in all cases: NCI-60 cell line screen, 48 h
DMS-273 = test system: DMS-273
RPMI-8226 = test system: RPMI-8226
A549 = test system: A549
TK-10 = test system: TK-10
KM12 = test system: KM12
NCI-H460 = test system: NCI-H460
OVCAR-3 = test system: OVCAR-3
SW-620 = test system: SW-620
HT-29 = test system: HT-29
786-0 = test system: 786-0
EKVX = test system: EKVX
SF-539 = test system: SF-539
UACC-257 = test system: UACC-257
CCRF-CEM = test system: CCRF-CEM
HCT-15 = test system: HCT-15
DLD-1 = test system: DLD-1
SR = test system: SR

Row | SMILES | GI50 (DMS-273) | GI50 (RPMI-8226) | GI50 (A549) | GI50 (TK-10) | GI50 (KM12) | GI50 (NCI-H460) | GI50 (OVCAR-3) | GI50 (SW-620) | GI50 (HT-29) | GI50 (786-0) | GI50 (EKVX) | GI50 (SF-539) | GI50 (UACC-257) | GI50 (CCRF-CEM) | GI50 (HCT-15) [µM] | GI50 (DLD-1) | GI50 (SR)
1 | CC1=CC(C)(C)N=C2SC(c3ccc(Cl)cc3)=NN12 | 38 µM (inactive) | 12.1 µM (inactive) | 40 µM (inactive) | 37 µM (inactive) | 26 µM (inactive) | 29.2 µM (inactive) | 18.1 µM (inactive) | 32.1 µM (inactive) | 12 µM (inactive) | 15.1 µM (inactive) | 3.85 µM (inactive) | 31.6 µM (inactive) | 29.4 µM (inactive) | 28.2 µM (inactive) | 25.4 | 19.5 µM (inactive) | –
2 | COC(=O)C1CCC2(CC1)NC(=O)NC2=O (stereo unspecified) | > 100 µM (inactive) | > 100 µM (inactive) | > 100 µM (inactive) | > 100 µM (inactive) | > 100 µM (inactive) | > 100 µM (inactive) | > 100 µM (inactive) | > 100 µM (inactive) | > 100 µM (inactive) | > 100 µM (inactive) | > 100 µM (inactive) | > 100 µM (inactive) | > 100 µM (inactive) | > 100 µM (inactive) | – | > 100 µM (inactive) | > 100 µM (inactive)
3 | COc1cccc(NC(=O)C(=O)C(C(=O)c2ccccc2F)C2OC(=O)c3ccccc32)c1 (stereo unspecified) | 29 µM (inactive) | 21.6 µM (inactive) | 45.3 µM (inactive) | > 100 µM (inactive) | 45.8 µM (inactive) | 35.1 µM (inactive) | – | 42.6 µM (inactive) | 34.3 µM (inactive) | – | 41.8 µM (inactive) | 21.3 µM (inactive) | > 100 µM (inactive) | 16.9 µM (inactive) | 28.7 | 36.6 µM (inactive) | 16.6 µM (inactive)
4 | CCC(C)(C)NC1=C(NC(C)=O)C(=O)c2ccccc2C1=O | 53.5 µM (inactive) | – | > 75 µM (inactive) | > 75 µM (inactive) | 57.3 µM (inactive) | 39.5 µM (inactive) | 34.8 µM (inactive) | 35.1 µM (inactive) | > 75 µM (inactive) | > 75 µM (inactive) | > 75 µM (inactive) | 24.4 µM (inactive) | 20.3 µM (inactive) | 17 µM (inactive) | 32.9 | 43.1 µM (inactive) | 31.3 µM (inactive)
5 | CCCCCCCCSC(SCCCCCCCC)=C1C(=O)N(c2ccccc2)N=C1C | 49.4 µM (inactive) | 39.4 µM (inactive) | 26.8 µM (inactive) | 42.6 µM (inactive) | 33.7 µM (inactive) | 40.3 µM (inactive) | 29.4 µM (inactive) | 14.5 µM (inactive) | 45.8 µM (inactive) | 46.1 µM (inactive) | 59.3 µM (inactive) | – | 30.5 µM (inactive) | 16.1 µM (inactive) | 37.7 | 21.4 µM (inactive) | 14.9 µM (inactive)
6 | O=C(c1ccc2c3c(ccc(C(=O)C(F)(F)F)c13)CC2)C(F)(F)F | 27.9 µM (inactive) | – | 57.1 µM (inactive) | 53 µM (inactive) | 44.1 µM (inactive) | 69.8 µM (inactive) | 69.8 µM (inactive) | > 100 µM (inactive) | 52.1 µM (inactive) | 57.5 µM (inactive) | 81.7 µM (inactive) | > 100 µM (inactive) | 42.3 µM (inactive) | – | 58.7 | 88.1 µM (inactive) | 60.1 µM (inactive)
7 | CC1(C)C2C=CC1C(=O)CC2 (stereo unspecified) | > 100 µM (inactive) | > 100 µM (inactive) | > 100 µM (inactive) | > 100 µM (inactive) | > 100 µM (inactive) | > 100 µM (inactive) | > 100 µM (inactive) | > 100 µM (inactive) | > 100 µM (inactive) | > 100 µM (inactive) | > 100 µM (inactive) | > 100 µM (inactive) | 49.9 µM (inactive) | > 100 µM (inactive) | > 100 | > 100 µM (inactive) | –
8 | COC(=O)/C=C\C1C(C(=O)OC)C2(C(=O)OC)CCC1(C(=O)OC)N2 (stereo unspecified) | 18.2 µM (inactive) | 5.08 µM (inactive) | 20.4 µM (inactive) | 4.47 µM (inactive) | 20.5 µM (inactive) | 21.6 µM (inactive) | 15.3 µM (inactive) | 3.13 µM (inactive) | 21.2 µM (inactive) | 15.3 µM (inactive) | 27.2 µM (inactive) | 17.8 µM (inactive) | 6.5 µM (inactive) | 4.15 µM (inactive) | 3.33 | 3.25 µM (inactive) | 5.37 µM (inactive)
9 | COC(=O)/C(=C1\OC(=O)C(c2ccc(Cl)cc2)=C1O)c1ccc(Cl)cc1 | 13.2 µM (inactive) | 19.6 µM (inactive) | 24.8 µM (inactive) | 31 µM (inactive) | 23.8 µM (inactive) | 26.1 µM (inactive) | 27.8 µM (inactive) | 35.7 µM (inactive) | 30 µM (inactive) | 36.1 µM (inactive) | 23.7 µM (inactive) | 23.4 µM (inactive) | 16.5 µM (inactive) | 24.2 µM (inactive) | – | 29.4 µM (inactive) | 25.8 µM (inactive)
10 | C[C@]12CCC(=O)C=C1CC[C@@H]1[C@@H]2[C@@H](O)C[C@@]2(C)[C@H]1CC[C@]2(O)C(=O)COC(=O)COCC(=O)O | > 100 µM (inactive) | > 100 µM (inactive) | > 100 µM (inactive) | > 100 µM (inactive) | > 100 µM (inactive) | > 100 µM (inactive) | > 100 µM (inactive) | > 100 µM (inactive) | > 100 µM (inactive) | > 100 µM (inactive) | > 100 µM (inactive) | > 100 µM (inactive) | > 100 µM (inactive) | > 100 µM (inactive) | > 100 | > 100 µM (inactive) | –
11 | CCOC(=O)CNc1nnnn1C1OC(CO)C(O)C1O (stereo unspecified) | > 100 µM (inactive) | > 100 µM (inactive) | > 100 µM (inactive) | > 100 µM (inactive) | > 100 µM (inactive) | > 100 µM (inactive) | > 100 µM (inactive) | > 100 µM (inactive) | > 100 µM (inactive) | > 100 µM (inactive) | > 100 µM (inactive) | > 100 µM (inactive) | > 100 µM (inactive) | > 100 µM (inactive) | > 100 | > 100 µM (inactive) | –
12 | CN(C)CCN(C)C(=O)c1cccc2cccc(C(=O)O)c12 | > 100 µM (inactive) | > 100 µM (inactive) | > 100 µM (inactive) | > 100 µM (inactive) | – | > 100 µM (inactive) | > 100 µM (inactive) | > 100 µM (inactive) | > 100 µM (inactive) | > 100 µM (inactive) | > 100 µM (inactive) | > 100 µM (inactive) | > 100 µM (inactive) | > 100 µM (inactive) | > 100 | > 100 µM (inactive) | > 100 µM (inactive)
13 | O=C(O/N=C1\CCCC\C1=C/c1ccccc1)c1ccc([N+](=O)[O-])cc1 | > 100 µM (inactive) | > 100 µM (inactive) | 88.5 µM (inactive) | – | – | > 100 µM (inactive) | 42.1 µM (inactive) | > 100 µM (inactive) | > 100 µM (inactive) | 98.6 µM (inactive) | > 100 µM (inactive) | 41.3 µM (inactive) | – | > 100 µM (inactive) | > 100 | 80 µM (inactive) | > 100 µM (inactive)
14 | N#CNC(=N)NC(=O)/C=C/C=C/c1ccc(Cl)cc1 | > 100 µM (inactive) | > 100 µM (inactive) | > 100 µM (inactive) | 94.2 µM (inactive) | > 100 µM (inactive) | > 100 µM (inactive) | > 100 µM (inactive) | > 100 µM (inactive) | > 100 µM (inactive) | 88.5 µM (inactive) | – | 21.3 µM (inactive) | > 100 µM (inactive) | > 100 µM (inactive) | > 100 | > 100 µM (inactive) | 72.9 µM (inactive)
15 | COc1ccc(-c2cc(-c3ccco3)c(C#N)c(=O)[nH]2)cc1 | 31 µM (inactive) | > 100 µM (inactive) | 91.4 µM (inactive) | 50.8 µM (inactive) | > 100 µM (inactive) | 35.1 µM (inactive) | 22.7 µM (inactive) | > 100 µM (inactive) | > 100 µM (inactive) | 91 µM (inactive) | > 100 µM (inactive) | 15.8 µM (inactive) | 77.4 µM (inactive) | > 100 µM (inactive) | 57.7 | > 100 µM (inactive) | –
16 | CC(=O)OCC1OC(n2cnc3c(I)nc(I)nc32)C(OC(C)=O)C1OC(C)=O (stereo unspecified) | 6.84 µM (inactive) | 10.9 µM (inactive) | 17.7 µM (inactive) | 19.3 µM (inactive) | 4.48 µM (inactive) | 17.7 µM (inactive) | 7.55 µM (inactive) | 13.8 µM (inactive) | 6.4 µM (inactive) | 14.3 µM (inactive) | 18.5 µM (inactive) | 16.1 µM (inactive) | 14.1 µM (inactive) | 3.8 µM (inactive) | 4.58 | 10.8 µM (inactive) | 3.13 µM (inactive)
17 | COC1=CC(=O)[C@]2(C)[C@H](C1=O)C(C)[C@H]2c1ccccc1 (stereo partly specified) | > 100 µM (inactive) | > 100 µM (inactive) | > 100 µM (inactive) | > 100 µM (inactive) | > 100 µM (inactive) | > 100 µM (inactive) | > 100 µM (inactive) | > 100 µM (inactive) | > 100 µM (inactive) | > 100 µM (inactive) | > 100 µM (inactive) | > 100 µM (inactive) | > 100 µM (inactive) | > 100 µM (inactive) | > 100 | > 100 µM (inactive) | > 100 µM (inactive)
